Results: patent US11787847B2, “Method of identifying malodor modulating compounds” (FIRMENICH SA, priority 2017, dated 2023)

Assays:
mouse receptor Olfr738 = molecular target: T1, mouse receptor Olfr738 (Mus musculus, UniProt L7N1X7); assay: cell-based dose-response, cAMP increase by HTRF, HEK293T cells (endogenous RTP1 activated) co-transfected with human Golf, Lucy-FLAG-Rho tagged receptor
T1 construct: cAMP HTRF
T1 sequence (L7N1X7 1-311): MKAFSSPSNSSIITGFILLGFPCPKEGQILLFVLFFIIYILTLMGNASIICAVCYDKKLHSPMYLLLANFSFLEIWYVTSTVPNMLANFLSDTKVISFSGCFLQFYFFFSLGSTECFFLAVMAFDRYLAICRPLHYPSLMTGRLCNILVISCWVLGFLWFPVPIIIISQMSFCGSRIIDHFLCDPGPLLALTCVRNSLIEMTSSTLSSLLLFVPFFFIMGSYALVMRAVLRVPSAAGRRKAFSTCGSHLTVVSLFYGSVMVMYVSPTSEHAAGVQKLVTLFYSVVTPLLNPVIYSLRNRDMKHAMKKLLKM
Method: (§1) Functional dose-response experiments were performed to evaluate the level of DMTS activity of the modified cell line expressing individual putative DMTS receptors. Using a cell-based assay, mouse receptor Olfr1193, Olfr1093, Olfr1097, Olrf166, Olfr169, Olfr738 and Olfr742, and human receptor OR4S2 and OR52N5 were tested in an HEK293T cell line wherein the endogenous RTP1 gene has been activated and the odorant receptor chaperone protein was expressed (described in WO2016/201153). The mouse receptor genes were tagged with a Lucy-FLAG®-Rho tag combination and the human receptors were tagged with a Rho-FLAG® tag combination resulting in a tag:receptor fusion protein for the cell based assay. Receptor genes were co-transfected with the canonical olfactory human G-protein alpha subunit Golf gene and were exposed to increasing concentrations of the malodor odorant. Co-expression of the human Golf activates the Gs transduction pathway that leads to an internal cAMP increase upon binding to the appropriate ligand. Odorant-induced activity was detected by measuring the cAMP increase in the cytosol using an Homogeneous Time Resolved Fluorescence (HTRF) based kit (CisBio, cAMP dynamic 2 kit, cat. 62AM4PEJ). […] The activity levels are reported by the potency of the DMTS induced-response for each receptor as a measure of the EC50 value (the effective concentration at which the receptor responds at its half-maximal activation efficacy level for a given compound).
(§2) Functional dose-response experiments were performed to confirm the DMTS activity on the DMTS receptors identified in Example 2 and to further characterize their response to DMDS. Using the same cell-based assay described in Example 2, mouse receptors Olfr1193, Olfr1093, Olfr1097, Olfr166, Olfr169, Olfr738, Olfr742 and of human odorant receptor OR4S2 were tested with increasing concentration of DMTS, DMDS or butyric acid (control). […] A weak response for OR4S2 and Olfr169 to butyric acid was visible but was too weak to consider butyric acid as a representative ligand for these receptors. The activity levels are reported by the potency of DMTS or DMDS induced-response for each receptor as a measure of the EC50 value, EC50DMTS and EC50DMDS respectively. […] Competitive antagonists at the malodor binding site of these receptors have the potential to reduce the unpleasant perception of both DMTS and DMDS.

mouse receptor Olfr1097 = molecular target: T2, mouse receptor Olfr1097 (Mus musculus, UniProt Q8VGA2); assay: as above
T2 construct: cAMP HTRF
T2 sequence (Q8VGA2 1-315): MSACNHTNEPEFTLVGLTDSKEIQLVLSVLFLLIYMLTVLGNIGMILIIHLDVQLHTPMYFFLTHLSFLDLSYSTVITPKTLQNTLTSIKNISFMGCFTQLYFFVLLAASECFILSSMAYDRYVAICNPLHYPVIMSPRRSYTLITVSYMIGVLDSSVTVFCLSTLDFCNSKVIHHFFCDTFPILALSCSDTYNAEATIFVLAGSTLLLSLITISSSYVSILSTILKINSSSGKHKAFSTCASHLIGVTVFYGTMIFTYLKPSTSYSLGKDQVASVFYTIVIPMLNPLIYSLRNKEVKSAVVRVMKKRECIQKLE
Method: as §1, §2

mouse receptor Olfr1193 = molecular target: T3, mouse receptor Olfr1193 (Mus musculus, UniProt A2AV13); assay: as above
T3 construct: cAMP HTRF
T3 sequence (A2AV13 1-318): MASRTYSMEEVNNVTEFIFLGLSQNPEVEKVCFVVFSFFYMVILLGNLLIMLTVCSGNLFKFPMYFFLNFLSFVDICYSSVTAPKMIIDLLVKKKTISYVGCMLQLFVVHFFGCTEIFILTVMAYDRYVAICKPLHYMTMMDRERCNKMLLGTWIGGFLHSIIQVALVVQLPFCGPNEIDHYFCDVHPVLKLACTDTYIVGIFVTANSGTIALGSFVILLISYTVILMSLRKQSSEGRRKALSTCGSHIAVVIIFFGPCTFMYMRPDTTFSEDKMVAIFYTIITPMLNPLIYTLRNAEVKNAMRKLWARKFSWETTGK
Method: as §1, §2

mouse receptor Olfr169 = molecular target: T4, mouse receptor Olfr169 (Mus musculus, UniProt Q7TS53); assay: as above
T4 construct: cAMP HTRF
T4 sequence (Q7TS53 1-313): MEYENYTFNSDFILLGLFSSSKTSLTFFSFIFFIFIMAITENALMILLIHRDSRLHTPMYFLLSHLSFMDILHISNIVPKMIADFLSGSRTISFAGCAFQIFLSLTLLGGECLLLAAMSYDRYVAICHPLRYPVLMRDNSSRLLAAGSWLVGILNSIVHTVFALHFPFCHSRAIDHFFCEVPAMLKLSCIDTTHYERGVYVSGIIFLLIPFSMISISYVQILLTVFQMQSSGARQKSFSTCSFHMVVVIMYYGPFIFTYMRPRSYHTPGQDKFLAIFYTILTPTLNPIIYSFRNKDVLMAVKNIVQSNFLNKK
Method: as §1, §2

mouse receptor Olfr1093 = molecular target: T5, mouse receptor Olfr1093 (Mus musculus, UniProt B2RR12); assay: as above
T5 construct: cAMP HTRF
T5 sequence (B2RR12 1-322): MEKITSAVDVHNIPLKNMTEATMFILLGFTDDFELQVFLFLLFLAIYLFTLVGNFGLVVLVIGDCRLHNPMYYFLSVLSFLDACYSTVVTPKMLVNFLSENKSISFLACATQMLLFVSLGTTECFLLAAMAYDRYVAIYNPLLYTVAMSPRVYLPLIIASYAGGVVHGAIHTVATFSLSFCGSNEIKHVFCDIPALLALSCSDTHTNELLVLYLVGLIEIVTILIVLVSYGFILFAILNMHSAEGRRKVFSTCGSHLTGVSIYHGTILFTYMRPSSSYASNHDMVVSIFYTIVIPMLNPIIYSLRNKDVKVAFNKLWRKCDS
Method: as §1, §2

[1] = test system: cells that do not express the odorant receptors (HEK293T); assay: Mock transfection control experiment (Example 5); assay type: cell-based
Method: Functional dose-response experiments were performed to evaluate the level of DMTS activity of the modified cell line expressing individual putative DMTS receptors. Using a cell-based assay, mouse receptor Olfr1193, Olfr1093, Olfr1097, Olrf166, Olfr169, Olfr738 and Olfr742, and human receptor OR4S2 and OR52N5 were tested in an HEK293T cell line wherein the endogenous RTP1 gene has been activated and the odorant receptor chaperone protein was expressed (described in WO2016/201153). The mouse receptor genes were tagged with a Lucy-FLAG®-Rho tag combination and the human receptors were tagged with a Rho-FLAG® tag combination resulting in a tag:receptor fusion protein for the cell based assay. Receptor genes were co-transfected with the canonical olfactory human G-protein alpha subunit Golf gene and were exposed to increasing concentrations of the malodor odorant. Co-expression of the human Golf activates the Gs transduction pathway that leads to an internal cAMP increase upon binding to the appropriate ligand. Odorant-induced activity was detected by measuring the cAMP increase in the cytosol using an Homogeneous Time Resolved Fluorescence (HTRF) based kit (CisBio, cAMP dynamic 2 kit, cat. 62AM4PEJ). […]

EC50 (mouse receptor Olfr738; FIG. 2, Example 2, SEQ ID NO: 12): 369 µM
EC50 (mouse receptor Olfr738; FIG. 5, Example 5, SEQ ID NO: 12): 190 µM
EC50 (mouse receptor Olfr1097; FIG. 2, Example 2, SEQ ID NO: 6): 17 µM
EC50 (mouse receptor Olfr1097; FIG. 5, Example 5, SEQ ID NO: 6): 18 µM
EC50 (mouse receptor Olfr1193; FIG. 2, Example 2, SEQ ID NO: 2): 55 µM
EC50 (mouse receptor Olfr1193; FIG. 5, Example 5, SEQ ID NO: 2): 16 µM
EC50 (mouse receptor Olfr169; FIG. 2, Example 2, SEQ ID NO: 10): 32 µM
EC50 (mouse receptor Olfr169; FIG. 5, Example 5, SEQ ID NO: 10): 23 µM
EC50 (mouse receptor Olfr1093; FIG. 2, Example 2, SEQ ID NO: 4): 46 µM
EC50 (mouse receptor Olfr1093; FIG. 5, Example 5, SEQ ID NO: 4): 62 µM
Structure (SMILES): CSSSC [DMTS, dimethyl trisulfide]
activity upon exposure in mock transfected cells [1]: did not show activity
